The test system of assay [1] is breast tissue. The conditions noted are these: healthy women; cited from earlier work.
Assay [2] deals with WID-Breast29 (mean methylation level of 37 CpGs) in breast tissue. Nature of the assay: WID-Breast29 in breast biopsies before and after treatment (clinical trials, Set 3). It is filed as in vivo, human. The source says:
Set 3: to assess the performance of the WID-Breast29 test monitoring preventive measures in real time. The samples were obtained from two clinical trials (FIG. 4) as follows.
Trial 1 was “Mifepristone treatment prior to insertion of a levonorgestrel releasing intrauterine system for improved bleeding control—a randomised controlled trial” (1) (EudraCT number: 2009-009014-40; Regional ethical review board at Karolinska Institutet permit 2009/144-31/4). The primary objective was to assess the effect of mifepristone pre-treatment on the initial bleeding pattern after insertion of a levonorgestrel releasing intrauterine system. An included secondary objective was to study the effect of mifepristone on breast tissue.
Trial 2 was “The Effect of a Progesterone Receptor Modulator on Breast Tissue in Women with BRCA-1 and -2 Mutations” (ClinicalTrials.gov Identifier: NCT01898312; regional ethical review board at Karolinska Institutet permit 2012/729 31/1). The core objective of this ongoing study is to assess the safety and effect of treatment with mifepristone on epithelial cell proliferation in human breast tissue in women with BRCA-1 or -2 mutations prior to protective mastectomy.
(§1) Study subjects for both trials were healthy premenopausal women aged 18 and above with regular menstrual cycles lasting 25-35 days and with no contraindications to mifepristone. The main exclusion criteria were: use of any hormonal or intrauterine contraception and pregnancy or breastfeeding two months prior to the study; a history of breast cancer or other malignancies and adnexal abnormality upon transvaginal ultrasound examination. All women were instructed to use barrier contraceptive methods throughout the duration of the study. After signing an informed consent, study subjects in both trials were randomised 1:1 or 1:2 into the vitamin arm (Triobe®—used as a comparator in these studies) or mifepristone arm in Trial 1 and Trial 2, respectively. One group (i.e. 16 BRCA carriers and 28 controls) was treated with 50 mg mifepristone (one quarter of 200 mg Mifegyne®, Exelgyn, Paris, France) every other day for two months in Trial 1 (n=28) and three months in Trial 2 (n=16) starting on the first day of the menstrual cycle. As mifepristone is only available in 200 mg tablets in Sweden, a study nurse divided the tablets into 4 parts (each 50 mg) and instructed the study subjects to take one part every other day. The other group (i.e. 8 BRCA carriers and 29 controls) received Triobe® tablets which are visually identical to mifepristone and were also divided into 4 parts [one quarter of TrioBe® contains 0.125 mg cyanocobalamin (Vitamin B12), 0.2 mg folic acid (Vitamin B9), and 0.75 mg Pyridoxinhydrochlorid (Vitamin B6)]. Tablets were dispensed for two weeks at a time. […]

In assay [3] the test system is BRCA-mediated breast cancer. The conditions noted are these: rodents; cited from earlier work.
Assay [4] deals with WID-Breast5 (mean PMR of MTA1, HOXD12, LHX8, NEUROD1, CBLN4) in breast tissue. Nature of the assay: WID-Breast5 (MethyLight PMR) in breast biopsies before and after treatment (Set 3). In kind it is in vivo, human.
Excerpt: as §1, with “time. Core needle aspiration biopsies were collected during the luteal phase before treatment and at the end of treatment during the luteal phase (vitamin treatment) or corresponding time of the cycle (mifepristone treatment). The biopsies were collected under ultrasound guidance from the upper outer quadrant of one breast using a 14 Gauge needle with an outer diameter of 2.2 mm. The end-of-treatment breast biopsy was taken from the same area. From Trial 1, 12 women from each of the vitamin and mifepristone groups were included in this study; of these, 11 and 9 women, respectively, had provided sufficient DNA from the pre- and post-treatment biopsies for subsequent processing and analysis.” for “time.”
Sodium bisulfite conversion of genomic DNA and the MethyLight assay were performed as previously described (A. Jones et al., Role of DNA methylation and epigenetic silencing of HAND2 in endometrial cancer development. PLoS Med 10, e1001551 (2013)). […] The percentage of fully methylated molecules at a specific locus has been calculated by dividing the GENE:COL2A1 ratio of a sample by the GENE:COL2A1 ratio of SssI-treated human white blood cell DNA and multiplied by 100. […]

In assay [5] the test system is mammary cancer. The settings on record: mice; cited from earlier work.
For assay [6], the system named is contralateral breast cancer. The settings on record: postmenopausal breast cancer patients; cited from earlier work.
For assay [7], the system named is breast epithelial proliferation. The conditions noted are these: three premenopausal volunteers; cited from earlier work.
[8] abbreviates: biopsies before and after 2-3 month treatment.

Entries after “also recorded” stand apart in the source; their conditions may differ.

Turning to `CC#C[C@]1(O)CC[C@H]2[C@@H]3CCC4=CC(=O)CCC4=C3[C@@H](c3ccc(N(C)C)cc3)C[C@@]21C` [mifepristone], the “effect on proliferation in breast tissue” value in assay [1] is listed as “antiproliferative effect”. In addition, the “BRCA mutant volunteers not showing a reduction of the WID-Breast29 after treatment” value in assay [2] (BRCA mutant volunteers (4/11)) amounted to 36%. Besides, in assay [2] (all women of the group (15 vitamins, 20 mifepristone), biopsies before and after 2-3 month treatment), the “women exhibiting a lower WID-Breast29 after treatment” value was found to be 80%. Besides, the “change in WID-Breast29 after treatment (paired-sample t-test)” value in assay [2] (setting [8]) is given as “highly significant reduction; also recorded: significantly reduced”. For the same compound, the “control volunteers showing a reduction of the WID-Breast29 after treatment” value in assay [2] (healthy control volunteers (n=9)) is recorded as 100%. Besides, the “prevention of BRCA-mediated breast cancer formation” value in assay [3] is listed as “can be prevented”. Besides, the “BRCA mutant volunteers not showing a reduction of the WID-Breast5 after treatment” value in assay [4] (BRCA mutant volunteers (6/10)) was 60%. Moreover, the “women exhibiting a lower WID-Breast5 after treatment” value in assay [4] (all women of the group (12 vitamins, 16 mifepristone), biopsies before and after 2-3 month treatment) is 75%. Besides, in assay [4] (setting [8]), the “change in WID-Breast5 after treatment (paired-sample t-test)” value was “highly significant reduction; also recorded: significantly reduced”. Further, the “control volunteers showing a reduction of the WID-Breast5 after treatment” value in assay [4] (healthy control volunteers (n=6)) turned out to be 100%. In assay [5], the “effect on mammary cancer development” value is listed as “reduce mammary cancer development”.

Take “Denosumab: fully humanised monoclonal antibody that binds RANKL”: the “impact on the incidence of contralateral breast cancer” value in assay [6] is given as “does not appear to impact”. The “effect on breast epithelial proliferation” value in assay [7] is “reduce breast epithelial proliferation”.

The values above are taken from US20240043933A1, “METHODS FOR DETECTING AND PREDICTING BREAST CANCER” (UCL Business Ltd, priority 2020, published 2024).
